Assay results reported in the kinase profiling compilation of Christmann-Franck et al. (2016).
Each block holds one compound with its values, some of them ahead of it.

Tests used:
Test in all cases: KINOMEscan competition binding
Details in all cases: compound 10.0 µM
SRC (human) = SRC (human) (UniProt P12931)
CDK18 (human) = CDK18 (human) (UniProt Q07002)
AURKC (human) = AURKC (human) (UniProt Q9UQB9)
STK17B (human) = STK17B (human) (UniProt O94768)
CSNK1D (human) = CSNK1D (human) (UniProt P48730)
AAK1 (human) = AAK1 (human) (UniProt Q2M2I8)
[1] = tested on: EGFR (human), P00533 [P753S; 747-752 del]
MAPK15 (human) = MAPK15 (human) (UniProt Q8TD08)
BMPR1A (human) = BMPR1A (human) (UniProt P36894)
TEK (human) = TEK (human) (UniProt Q02763)
EPHA4 (human) = EPHA4 (human) (UniProt P54764)
TSSK1B (human) = TSSK1B (human) (UniProt Q9BXA7)
MAP3K11 (human) = MAP3K11 (human) (UniProt Q16584)
RAF1 (human) = RAF1 (human) (UniProt P04049)
BMPR1B (human) = BMPR1B (human) (UniProt O00238)
NUAK2 (human) = NUAK2 (human) (UniProt Q9H093)
MAPK6 (human) = MAPK6 (human) (UniProt Q16659)
RIPK1 (human) = RIPK1 (human) (UniProt Q13546)
EPHA1 (human) = EPHA1 (human) (UniProt P21709)
PKN1 (human) = PKN1 (human) (UniProt Q16512)
LCK (human) = LCK (human) (UniProt P06239)
CHUK (human) = CHUK (human) (UniProt O15111)
TNIK (human) = TNIK (human) (UniProt Q9UKE5)
PDGFRB (human) = PDGFRB (human) (UniProt P09619)
STK24 (human) = STK24 (human) (UniProt Q9Y6E0)
FGFR3 (human) = FGFR3 (human) (UniProt P22607)
STK3 (human) = STK3 (human) (UniProt Q13188)
TNK2 (human) = TNK2 (human) (UniProt Q07912)
CSNK1G1 (human) = CSNK1G1 (human) (UniProt Q9HCP0)
GSK3A (human) = GSK3A (human) (UniProt P49840)
RPS6KA1 KD2 (human) = RPS6KA1 KD2 (human) (UniProt Q15418)
ACVRL1 (human) = ACVRL1 (human) (UniProt P37023)
[2] = tested on: KIT (human), P10721 [V559D]
PIM3 (human) = PIM3 (human) (UniProt Q86V86)
PRKD1 (human) = PRKD1 (human) (UniProt Q15139)
MAP2K2 (human) = MAP2K2 (human) (UniProt P36507)
MAP3K12 (human) = MAP3K12 (human) (UniProt Q12852)
CDC42BPB (human) = CDC42BPB (human) (UniProt Q9Y5S2)
FYN (human) = FYN (human) (UniProt P06241)
IGF1R (human) = IGF1R (human) (UniProt P08069)
CDK16 (human) = CDK16 (human) (UniProt Q00536)
TIE1 (human) = TIE1 (human) (UniProt P35590)
Sequence of TIE1 (human) (P35590 whole entry, looked up): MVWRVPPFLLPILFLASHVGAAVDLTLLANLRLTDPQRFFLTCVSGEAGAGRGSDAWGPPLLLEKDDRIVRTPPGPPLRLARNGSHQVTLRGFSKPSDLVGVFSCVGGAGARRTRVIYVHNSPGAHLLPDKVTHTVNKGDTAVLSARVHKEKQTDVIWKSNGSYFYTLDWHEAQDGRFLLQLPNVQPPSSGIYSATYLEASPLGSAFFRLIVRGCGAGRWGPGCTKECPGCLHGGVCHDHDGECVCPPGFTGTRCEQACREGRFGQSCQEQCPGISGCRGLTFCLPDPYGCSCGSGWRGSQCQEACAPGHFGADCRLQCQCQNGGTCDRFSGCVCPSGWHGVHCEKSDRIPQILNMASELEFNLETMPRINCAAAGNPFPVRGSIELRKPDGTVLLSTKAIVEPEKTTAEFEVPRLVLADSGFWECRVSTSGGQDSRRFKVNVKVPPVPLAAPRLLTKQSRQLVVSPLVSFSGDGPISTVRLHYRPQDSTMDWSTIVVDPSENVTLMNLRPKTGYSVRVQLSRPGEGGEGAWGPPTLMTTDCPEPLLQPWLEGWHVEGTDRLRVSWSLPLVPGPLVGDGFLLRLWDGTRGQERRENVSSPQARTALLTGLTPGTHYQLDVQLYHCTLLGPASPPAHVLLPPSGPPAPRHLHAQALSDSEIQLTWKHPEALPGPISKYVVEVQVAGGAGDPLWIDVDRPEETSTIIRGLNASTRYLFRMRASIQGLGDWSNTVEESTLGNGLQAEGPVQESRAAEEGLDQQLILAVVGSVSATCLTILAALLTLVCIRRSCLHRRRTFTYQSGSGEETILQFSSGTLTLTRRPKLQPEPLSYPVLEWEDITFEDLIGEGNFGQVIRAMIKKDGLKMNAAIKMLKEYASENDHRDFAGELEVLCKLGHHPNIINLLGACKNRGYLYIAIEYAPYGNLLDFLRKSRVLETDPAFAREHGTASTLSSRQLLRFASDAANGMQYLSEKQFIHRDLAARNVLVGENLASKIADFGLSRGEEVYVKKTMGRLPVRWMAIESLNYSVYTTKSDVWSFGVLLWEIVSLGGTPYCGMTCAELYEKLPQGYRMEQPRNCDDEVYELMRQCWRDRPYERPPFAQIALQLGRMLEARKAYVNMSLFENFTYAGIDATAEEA

Sequence of STK3 (human) (Q13188 whole entry, looked up): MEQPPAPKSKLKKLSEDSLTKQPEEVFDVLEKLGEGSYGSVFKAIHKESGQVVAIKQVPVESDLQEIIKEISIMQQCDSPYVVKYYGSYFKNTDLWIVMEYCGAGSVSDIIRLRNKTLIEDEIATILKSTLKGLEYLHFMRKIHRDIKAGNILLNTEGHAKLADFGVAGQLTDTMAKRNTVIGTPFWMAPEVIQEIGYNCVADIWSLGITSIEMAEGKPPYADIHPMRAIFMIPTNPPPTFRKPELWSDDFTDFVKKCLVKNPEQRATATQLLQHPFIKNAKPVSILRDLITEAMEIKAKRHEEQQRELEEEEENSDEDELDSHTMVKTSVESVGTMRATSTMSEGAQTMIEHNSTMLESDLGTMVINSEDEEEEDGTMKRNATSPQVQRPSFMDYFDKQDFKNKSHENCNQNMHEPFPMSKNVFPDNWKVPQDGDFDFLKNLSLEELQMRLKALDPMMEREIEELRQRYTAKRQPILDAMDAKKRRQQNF
Sequence of NUAK2 (human) (Q9H093 whole entry, looked up): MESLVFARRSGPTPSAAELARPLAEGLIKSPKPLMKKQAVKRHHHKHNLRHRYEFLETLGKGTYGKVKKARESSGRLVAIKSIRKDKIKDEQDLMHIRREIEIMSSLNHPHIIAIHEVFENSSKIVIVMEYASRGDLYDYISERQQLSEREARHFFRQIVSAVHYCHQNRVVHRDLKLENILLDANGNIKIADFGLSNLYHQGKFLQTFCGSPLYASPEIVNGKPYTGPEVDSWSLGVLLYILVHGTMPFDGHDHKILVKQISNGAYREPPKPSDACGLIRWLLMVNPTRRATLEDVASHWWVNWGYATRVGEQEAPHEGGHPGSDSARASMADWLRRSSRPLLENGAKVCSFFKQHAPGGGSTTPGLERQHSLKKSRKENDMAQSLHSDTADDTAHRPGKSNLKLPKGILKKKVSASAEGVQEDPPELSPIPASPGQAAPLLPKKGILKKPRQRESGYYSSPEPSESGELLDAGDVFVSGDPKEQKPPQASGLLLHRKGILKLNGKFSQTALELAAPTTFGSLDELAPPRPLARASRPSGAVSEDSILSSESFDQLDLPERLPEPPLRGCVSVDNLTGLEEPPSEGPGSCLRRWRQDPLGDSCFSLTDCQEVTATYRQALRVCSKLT
Sequence of MAPK6 (human) (Q16659 whole entry, looked up): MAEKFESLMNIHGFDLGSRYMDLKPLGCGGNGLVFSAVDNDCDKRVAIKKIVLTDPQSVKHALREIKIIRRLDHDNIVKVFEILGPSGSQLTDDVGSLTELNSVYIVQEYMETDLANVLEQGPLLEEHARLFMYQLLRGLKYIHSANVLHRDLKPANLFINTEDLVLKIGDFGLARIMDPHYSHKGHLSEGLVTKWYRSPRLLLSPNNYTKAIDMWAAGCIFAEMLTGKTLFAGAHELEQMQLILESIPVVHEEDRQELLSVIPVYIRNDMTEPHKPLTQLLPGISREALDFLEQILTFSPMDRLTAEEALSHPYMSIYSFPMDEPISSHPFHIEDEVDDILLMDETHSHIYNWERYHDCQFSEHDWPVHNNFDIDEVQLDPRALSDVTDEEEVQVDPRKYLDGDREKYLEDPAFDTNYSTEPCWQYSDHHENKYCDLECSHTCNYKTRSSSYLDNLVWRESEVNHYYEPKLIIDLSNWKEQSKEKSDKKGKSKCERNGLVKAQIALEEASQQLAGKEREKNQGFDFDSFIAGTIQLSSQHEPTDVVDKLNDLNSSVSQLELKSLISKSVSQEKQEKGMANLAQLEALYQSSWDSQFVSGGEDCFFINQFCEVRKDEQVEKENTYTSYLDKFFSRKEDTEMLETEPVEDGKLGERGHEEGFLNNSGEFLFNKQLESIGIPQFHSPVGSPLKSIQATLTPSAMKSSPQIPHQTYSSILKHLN
Sequence of MAPK15 (human) (Q8TD08 whole entry, looked up): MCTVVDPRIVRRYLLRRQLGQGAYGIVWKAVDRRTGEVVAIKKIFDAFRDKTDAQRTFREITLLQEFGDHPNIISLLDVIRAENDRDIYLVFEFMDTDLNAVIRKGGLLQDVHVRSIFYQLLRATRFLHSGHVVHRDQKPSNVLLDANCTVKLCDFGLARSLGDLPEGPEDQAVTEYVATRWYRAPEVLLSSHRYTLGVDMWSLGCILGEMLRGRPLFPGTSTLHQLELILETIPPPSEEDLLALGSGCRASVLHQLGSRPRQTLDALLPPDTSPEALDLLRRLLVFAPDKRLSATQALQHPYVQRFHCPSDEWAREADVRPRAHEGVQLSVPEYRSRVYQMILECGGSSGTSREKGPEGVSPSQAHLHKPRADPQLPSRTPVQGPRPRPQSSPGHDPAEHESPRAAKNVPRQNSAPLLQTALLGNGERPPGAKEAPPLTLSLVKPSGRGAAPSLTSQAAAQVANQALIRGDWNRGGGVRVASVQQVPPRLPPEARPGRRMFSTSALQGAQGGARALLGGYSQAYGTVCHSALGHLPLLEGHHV
Sequence of AURKC (human) (Q9UQB9 whole entry, looked up): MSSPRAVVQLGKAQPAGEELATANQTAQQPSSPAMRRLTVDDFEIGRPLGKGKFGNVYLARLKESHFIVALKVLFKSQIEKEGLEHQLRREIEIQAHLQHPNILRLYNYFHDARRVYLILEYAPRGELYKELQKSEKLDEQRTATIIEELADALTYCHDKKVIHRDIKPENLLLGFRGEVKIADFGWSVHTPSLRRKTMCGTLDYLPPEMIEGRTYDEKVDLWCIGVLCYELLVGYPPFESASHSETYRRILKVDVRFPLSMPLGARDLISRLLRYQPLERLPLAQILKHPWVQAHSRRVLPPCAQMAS
Sequence of BMPR1B (human) (O00238 whole entry, looked up): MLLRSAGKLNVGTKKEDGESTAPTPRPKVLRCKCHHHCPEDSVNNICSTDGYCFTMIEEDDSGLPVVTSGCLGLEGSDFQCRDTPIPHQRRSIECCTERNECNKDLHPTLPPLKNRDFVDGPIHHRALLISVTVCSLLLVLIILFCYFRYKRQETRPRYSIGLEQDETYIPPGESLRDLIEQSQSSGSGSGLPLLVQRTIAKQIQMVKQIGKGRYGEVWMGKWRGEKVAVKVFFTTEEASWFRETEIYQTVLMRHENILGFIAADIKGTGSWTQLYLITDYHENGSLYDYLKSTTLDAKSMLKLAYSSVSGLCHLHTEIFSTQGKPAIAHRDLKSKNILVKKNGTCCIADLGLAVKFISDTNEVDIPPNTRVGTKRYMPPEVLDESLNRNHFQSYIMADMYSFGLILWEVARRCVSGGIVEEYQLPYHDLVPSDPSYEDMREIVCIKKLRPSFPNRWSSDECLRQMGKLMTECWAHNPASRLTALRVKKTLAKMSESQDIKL
Sequence of LCK (human) (P06239 whole entry, looked up): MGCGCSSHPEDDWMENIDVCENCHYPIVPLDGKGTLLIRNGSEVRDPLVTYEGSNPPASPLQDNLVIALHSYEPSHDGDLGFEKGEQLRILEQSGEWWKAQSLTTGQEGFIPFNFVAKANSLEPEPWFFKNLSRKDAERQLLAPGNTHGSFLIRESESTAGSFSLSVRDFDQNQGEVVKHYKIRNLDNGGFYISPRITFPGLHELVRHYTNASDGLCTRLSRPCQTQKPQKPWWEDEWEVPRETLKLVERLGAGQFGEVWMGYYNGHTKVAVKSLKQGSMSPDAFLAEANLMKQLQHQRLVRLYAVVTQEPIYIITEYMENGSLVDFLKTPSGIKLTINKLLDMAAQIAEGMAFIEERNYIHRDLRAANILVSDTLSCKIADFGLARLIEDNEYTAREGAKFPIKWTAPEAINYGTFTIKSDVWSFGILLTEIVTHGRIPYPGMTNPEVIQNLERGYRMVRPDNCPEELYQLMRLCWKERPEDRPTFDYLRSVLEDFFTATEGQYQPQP

kinase still bound, per cent of control (SRC (human)): 0.2% | kinase still bound, per cent of control (CDK18 (human)): 40% | kinase still bound, per cent of control (AURKC (human)): 0.1% | kinase still bound, per cent of control (STK17B (human)): 40% | kinase still bound, per cent of control (CSNK1D (human)): 40% | kinase still bound, per cent of control (AAK1 (human)): 2.8% | kinase still bound, per cent of control [1]: 0.95% | kinase still bound, per cent of control (BMPR1A (human)): 0% | kinase still bound, per cent of control (TEK (human)): 0% | kinase still bound, per cent of control (EPHA4 (human)): 30% | kinase still bound, per cent of control (TSSK1B (human)): 0% | kinase still bound, per cent of control (MAP3K11 (human)): 20% | kinase still bound, per cent of control (RAF1 (human)): 40% | kinase still bound, per cent of control (BMPR1B (human)): 1.2% | kinase still bound, per cent of control (NUAK2 (human)): 0% | kinase still bound, per cent of control (MAPK6 (human)): 40% | kinase still bound, per cent of control (RIPK1 (human)): 18% | kinase still bound, per cent of control (EPHA1 (human)): 0.15% | kinase still bound, per cent of control (PKN1 (human)): 0.5% | kinase still bound, per cent of control (LCK (human)): 0.1% | kinase still bound, per cent of control (CHUK (human)): 40% | kinase still bound, per cent of control (TNIK (human)): 12% | kinase still bound, per cent of control (PDGFRB (human)): 0.25% | kinase still bound, per cent of control (STK24 (human)): 24% | kinase still bound, per cent of control (FGFR3 (human)): 2.6% | kinase still bound, per cent of control (STK3 (human)): 0.25% | kinase still bound, per cent of control (TNK2 (human)): 0% | kinase still bound, per cent of control (CSNK1G1 (human)): 40% | kinase still bound, per cent of control (GSK3A (human)): 40% | kinase still bound, per cent of control (RPS6KA1 KD2 (human)): 10% | kinase still bound, per cent of control (ACVRL1 (human)): 1.7% | kinase still bound, per cent of control [2]: 0.1% | kinase still bound, per cent of control (PIM3 (human)): 40% | kinase still bound, per cent of control (PRKD1 (human)): 1% | kinase still bound, per cent of control (MAP2K2 (human)): 1.8% | kinase still bound, per cent of control (MAP3K12 (human)): 0% | kinase still bound, per cent of control (CDC42BPB (human)): 25% | kinase still bound, per cent of control (FYN (human)): 5.6% | kinase still bound, per cent of control (IGF1R (human)): 0%
Structure (SMILES): COc1cc(N2CCC(N3CCN(C)CC3)CC2)ccc1Nc1ncc(Cl)c(Nc2ccccc2S(=O)(=O)C(C)C)n1
kinase still bound, per cent of control (MAPK15 (human)): 0.25%

Structure (SMILES): CCN1CCN(Cc2ccc(NC(=O)c3ccc(C)c(/C=C/c4cnc(Nc5cc(N6CCNCC6)nc(C)n5)cn4)c3)cc2C(F)(F)F)CC1
kinase still bound, per cent of control (SRC (human)): 0.25% | kinase still bound, per cent of control (CDK18 (human)): 81% | kinase still bound, per cent of control (AURKC (human)): 45% | kinase still bound, per cent of control (STK17B (human)): 2% | kinase still bound, per cent of control (CSNK1D (human)): 95% | kinase still bound, per cent of control (AAK1 (human)): 84% | kinase still bound, per cent of control [1]: 0.2% | kinase still bound, per cent of control (MAPK15 (human)): 100% | kinase still bound, per cent of control (BMPR1A (human)): 100% | kinase still bound, per cent of control (TEK (human)): 0% | kinase still bound, per cent of control (EPHA4 (human)): 16% | kinase still bound, per cent of control (TSSK1B (human)): 100% | kinase still bound, per cent of control (MAP3K11 (human)): 10% | kinase still bound, per cent of control (RAF1 (human)): 43% | kinase still bound, per cent of control (BMPR1B (human)): 77% | kinase still bound, per cent of control (NUAK2 (human)): 81% | kinase still bound, per cent of control (MAPK6 (human)): 100% | kinase still bound, per cent of control (RIPK1 (human)): 2.7% | kinase still bound, per cent of control (EPHA1 (human)): 10% | kinase still bound, per cent of control (PKN1 (human)): 100% | kinase still bound, per cent of control (LCK (human)): 0.45% | kinase still bound, per cent of control (CHUK (human)): 0% | kinase still bound, per cent of control (TNIK (human)): 1.9% | kinase still bound, per cent of control (PDGFRB (human)): 0% | kinase still bound, per cent of control (STK24 (human)): 30% | kinase still bound, per cent of control (CDK16 (human)): 60% | kinase still bound, per cent of control (FGFR3 (human)): 12% | kinase still bound, per cent of control (STK3 (human)): 100% | kinase still bound, per cent of control (TNK2 (human)): 32% | kinase still bound, per cent of control (CSNK1G1 (human)): 100% | kinase still bound, per cent of control (GSK3A (human)): 81% | kinase still bound, per cent of control (RPS6KA1 KD2 (human)): 13% | kinase still bound, per cent of control (ACVRL1 (human)): 79% | kinase still bound, per cent of control [2]: 0.05% | kinase still bound, per cent of control (PIM3 (human)): 55% | kinase still bound, per cent of control (PRKD1 (human)): 90% | kinase still bound, per cent of control (MAP2K2 (human)): 11% | kinase still bound, per cent of control (MAP3K12 (human)): 18% | kinase still bound, per cent of control (CDC42BPB (human)): 100% | kinase still bound, per cent of control (TIE1 (human)): 2.8% | kinase still bound, per cent of control (FYN (human)): 4.6% | kinase still bound, per cent of control (IGF1R (human)): 87%

Structure (SMILES): CCOc1cc(N2CCC(N3CCCCC3)CC2)ccc1Nc1nc(Nc2ccccc2S(=O)(=O)C(C)C)c2cn[nH]c2n1
kinase still bound, per cent of control (SRC (human)): 69% | kinase still bound, per cent of control (CDK18 (human)): 100% | kinase still bound, per cent of control (AURKC (human)): 100% | kinase still bound, per cent of control (STK17B (human)): 100% | kinase still bound, per cent of control (CSNK1D (human)): 92% | kinase still bound, per cent of control (AAK1 (human)): 69% | kinase still bound, per cent of control [1]: 40% | kinase still bound, per cent of control (MAPK15 (human)): 100% | kinase still bound, per cent of control (BMPR1A (human)): 100% | kinase still bound, per cent of control (TEK (human)): 100% | kinase still bound, per cent of control (EPHA4 (human)): 100% | kinase still bound, per cent of control (TSSK1B (human)): 92% | kinase still bound, per cent of control (MAP3K11 (human)): 100% | kinase still bound, per cent of control (RAF1 (human)): 100% | kinase still bound, per cent of control (BMPR1B (human)): 49% | kinase still bound, per cent of control (NUAK2 (human)): 27% | kinase still bound, per cent of control (MAPK6 (human)): 94% | kinase still bound, per cent of control (RIPK1 (human)): 100% | kinase still bound, per cent of control (EPHA1 (human)): 100% | kinase still bound, per cent of control (PKN1 (human)): 100% | kinase still bound, per cent of control (LCK (human)): 84% | kinase still bound, per cent of control (CHUK (human)): 100% | kinase still bound, per cent of control (TNIK (human)): 87% | kinase still bound, per cent of control (PDGFRB (human)): 69% | kinase still bound, per cent of control (STK24 (human)): 82% | kinase still bound, per cent of control (CDK16 (human)): 98% | kinase still bound, per cent of control (FGFR3 (human)): 94% | kinase still bound, per cent of control (STK3 (human)): 100% | kinase still bound, per cent of control (TNK2 (human)): 3.4% | kinase still bound, per cent of control (CSNK1G1 (human)): 71% | kinase still bound, per cent of control (GSK3A (human)): 100% | kinase still bound, per cent of control (RPS6KA1 KD2 (human)): 14% | kinase still bound, per cent of control (ACVRL1 (human)): 100% | kinase still bound, per cent of control [2]: 86% | kinase still bound, per cent of control (PIM3 (human)): 100% | kinase still bound, per cent of control (PRKD1 (human)): 73% | kinase still bound, per cent of control (MAP2K2 (human)): 94% | kinase still bound, per cent of control (MAP3K12 (human)): 100% | kinase still bound, per cent of control (CDC42BPB (human)): 100% | kinase still bound, per cent of control (TIE1 (human)): 76% | kinase still bound, per cent of control (FYN (human)): 100% | kinase still bound, per cent of control (IGF1R (human)): 0.25%

kinase still bound, per cent of control (SRC (human)): 0.2% | kinase still bound, per cent of control (CDK18 (human)): 1.8% | kinase still bound, per cent of control [1]: 1.2% | kinase still bound, per cent of control (TEK (human)): 0% | kinase still bound, per cent of control (EPHA4 (human)): 5.8% | kinase still bound, per cent of control (RAF1 (human)): 7% | kinase still bound, per cent of control (RIPK1 (human)): 0% | kinase still bound, per cent of control (LCK (human)): 0.8% | kinase still bound, per cent of control (CHUK (human)): 0.95% | kinase still bound, per cent of control (TNIK (human)): 8.2% | kinase still bound, per cent of control (PDGFRB (human)): 0% | kinase still bound, per cent of control (CDK16 (human)): 11% | kinase still bound, per cent of control (FGFR3 (human)): 9.4% | kinase still bound, per cent of control [2]: 0% | kinase still bound, per cent of control (TIE1 (human)): 0.95% | kinase still bound, per cent of control (FYN (human)): 1.6%
Structure (SMILES): CCN1CCN(Cc2ccc(NC(=O)c3ccc(C)c(Oc4ccnc5[nH]ccc45)c3)cc2C(F)(F)F)CC1
